In PMC9538480, “Rutin bioconjugates as potential nutraceutical prodrugs: An in vitro and in ovo toxicological screening” (Frontiers in Pharmacology, 2022):

Experiments:
[1] = in vitro; assay type: cell-based, rat; settings: rat
Procedure: (§1) To evaluate the in vitro effect of rutin esters (REs) on cells’ viability, the MTT technique was applied following a 24 h treatment of H9c2(2-1), HepaRG, and HaCaT cells with RUT-O and RUT-L (1, 10, 25, 50, and 100 µM). The parent compounds (PCs)—RUT, OA, and LA were also tested. DMSO was used as solvent for all test compounds (RUT, OA, LA, RUT-O, and RUT-L). The impact of DMSO at tested concentrations (1, 10, 25, 50, and 100 µM) was also assessed in vitro. At the end of the treatment, fresh media (100 µl) and the MTT reagent (10 µl) were added in each well, and the plates were incubated for 3 h at 37°C. The final steps were as follows: addition of the solubilization solution (100 µl/well), incubation of the plates at room temperature for 30 min, protected from light, and absorbance measurement at two wavelengths (570 and 630 nm) using Cytation 5 (BioTek Instruments Inc., Winooski, VT, United States). The results were expressed as percentage (%) of viable cells normalized to control cells (unstimulated cells).

[2] = in vitro; assay type: cell-based, human; settings: human
Procedure: as §1

[3] = test system: H9c2(2-1), HaCaT, and HepaRG cells; assay type: cell-based; settings: 100 µM, 24 h; for round cells floating in the culture medium: bright field; for impact on cells' adherence or confluency: compared to control cells
Procedure: To verify the impact of PCs (RUT, OA and LA) and REs (RUT-O and RUT-L) on the morphology and confluence of H9c2(2-1), HaCaT, and HepaRG cells, a microscopic examination was performed. The cells were observed under bright field illumination and photographed at the end of the 24 h treatment period using Cytation 1 (BioTek Instruments Inc., Winooski, VT, United States). The photographs were processed using the Gen5™ Microplate Data Collection and Analysis Software (BioTek Instruments Inc., Winooski, VT, United States).

[4] = test system: H9c2(2-1) cells; assay type: cell-based, rat; settings: 100 µM, 24 h, Hoechst 33342
Procedure: (§2) The potential toxicity of 100 μM RUT, OA, LA, RUT-O, and RUT-L at nuclear level was tested by applying the Hoechst 33342 staining assay protocol according to the manufacturer’s (Thermo Fisher Scientific, Inc., Waltham, MA, United States) recommendations. In brief, H9c2(2-1), HepaRG, and HaCaT cells were seeded in 12-well plates (10^5 cells/1.5 ml/well) and treated with the test compounds for 24 h. After the stimulation period, the media was removed, and the staining solution diluted 1:2000 in PBS was added (500 µl/well). The plates were incubated for 10 min at room temperature, protected from light. Finally, the staining solution was washed with PBS and the pictures were taken using Cytation 1 (BioTek Instruments Inc., Winooski, VT, United States) and analyzed by the means of Gen5™ Microplate Data Collection and Analysis Software (BioTek Instruments Inc., Winooski, VT, United States). Staurosporine (STP) 5 µM was selected as positive control for apoptosis.

[5] = test system: HaCaT cells; assay type: cell-based, human; settings: 100 µM, 24 h, Hoechst 33342
Procedure: as §2

[6] = test system: HepaRG cells; assay type: cell-based, human; settings: 100 µM, 24 h, Hoechst 33342
Procedure: as §2

[7] = test system: chorioallantoic membrane; test: HET-CAM in ovo irritant potential; assay type: in vivo, Gallus domesticus; settings: for vascular irritation signs (hemorrhage, lysis, coagulation) in words: 5 min after application; for tC = time of coagulation / tH = time of hemorrage / tL = time of lysis / Irritation score (IS): test compounds 100 µM, 5 min observation; for Irritation score (IS): 600 μl
Procedure: To perform a toxicological screening and to verify the irritant potential of the RUT-O and RUT-L were used chicken eggs (Gallus domesticus). Specifically, the eggs were prepared as follows: 1) after being washed and disinfected with 70% ethanol (v/v), the eggs were placed in an incubator in a horizontal posture; 2) on the fourth day of incubation, a small hole was made through which a volume of approximately 7–8 ml of albumen was extracted in order to facilitate the detachment of the chorioallantoic membrane from the inner shell of the egg; 3) on the fifth day of incubation, a window was cut in the upper part of the egg to allow the visualization of the blood vessels, which was then covered with adhesive tape and the eggs were placed in the incubator until the day of the beginning of the experiment. Using the Hen’s Egg Test—Chorioallantoic Membrane (HET-CAM) assay, the potential in ovo toxicity of the samples was evaluated. […] [Kis et al., 2022]). […] In order to observe any vascular effects, a stereomicroscope (Discovery 8 Stereomicroscope Zeiss, Göttingen, and Germany) was used, and images were taken with a Zeiss Axio CAM 105 color camera before and 5 min after the application of the samples. The same experimental protocol was applied for the parent compounds—RUT, OA, and LA.

[8] = test system: HUVEC endothelial cells; settings: ref Bass et al., 2020; cited from earlier work
[9] = test system: H9c2(2-1) cells; test: in vitro; assay type: cell-based, rat; settings: H9c2(2-1), 24 h; for cell viability normalized to control: MTT
Procedure: as §1

[10] = test system: HepaRG cells; test: in vitro; assay type: cell-based, human; settings: 100 µM
Procedure: as §1

[11] = test system: HaCaT cells; assay type: cell-based, human; settings: 24 h
Procedure: as §1

[12] = test system: HepaRG cells; test: Wound healing (scratch) assay; assay type: cell-based, human; settings: 25 µM, 24 h, control 44.31%
Procedure: The influence of RUT-O and RUT-L on the migration of cells was assessed by performing the wound healing (scratch) assay. In brief, the cells (10^5 cells/ml/well) were cultured in 24-well plates (Corning Costar), and an automatic scratch was made in each well by using the AutoScratchTM Wound Making Tool provided by BioTek® Instruments Inc. (Winooski, VT, United States). The cells were further treated with the flavonoid esters at the concentration of 25 μM for 24 h, and representative images of the wound area were taken at 0 and 24 h using Cytation 1 (BioTek® Instruments Inc., Winooski, VT, United States). The wound widths were measured using Gen5 TM Microplate Data Collection and Analysis Software (BioTek® Instruments Inc., Winooski, VT, United States). The effects on cell migration were quantified by calculating the wound healing rates (%) using a formula presented in our previous studies ([[…] et al., 2020]).

[13] = test system: reconstructed human epidermis 3D tissues—EpiDerm™ (EPI-212); settings: for tissue viability compared to negative control (DPBS-treated inserts) / skin irritation classification (OECD Test Guideline 439, irritant if viability below 50%): 100 µM; for skin irritation classification (OECD Test Guideline 439, irritant if viability below 50%): EpiDerm
Description: The reconstructed human epidermal model—EpiDerm™ (EPI-212, [MatTek Corporation protocol, 2021], Bratislava, Slovakia) (Lot no. 36155) is a multilayered differentiated human epidermis model made of normal human-derived epidermal keratinocytes, validated as test method for the OECD 439 (In vitro skin irritation: reconstructed human epidermis test methods) ([OECD, 2021]). The EpiDerm™ tissues (prepared as inserts) that served as model for the skin irritation test together with the specific culture media (assay medium—EPI-100-NMM), Dulbecco’s phosphate buffered saline (DPBS) (negative control), sodium dodecyl sulphate (SDS) 5% and the MTT kit were provided by the manufacturer (MatTek Corporation, Bratislava, Slovakia).
The in vitro skin irritation test (EPI-212-SIT) was performed according to the manufacturer’s recommendations and to the data from the literature [MatTek Corporation protocol—In vitro EpiDerm Skin Irritation Test (EPI-200-SIT); [Kandarova et al., 2018]]. […] The same protocol was performed for the positive (5% SDS in saline) and negative (sterile DPBS) controls. The tissue viability (%) was calculated according to the formulas specified in the literature ([Pinzaru et al., 2021]).

| SMILES | round cells floating in the culture medium [3] | impact on cells' adherence or confluency [3] | nuclear morphology changes [4] | nuclear morphology changes [5] | nuclear morphology changes [6] | vascular irritation signs (hemorrhage, lysis, coagulation) in words [7] | wound healing rate [12] [%] | tissue viability compared to negative control (DPBS-treated inserts) ([13]; EpiDerm inserts) | skin irritation classification (OECD Test Guideline 439, irritant if viability below 50%) [13] | tC = time of coagulation [7] [s] | tH = time of hemorrage [7] [s] | tL = time of lysis [7] [s] | Irritation score (IS) [7] | other results |
| --- | --- | --- | --- | --- | --- | --- | --- | --- | --- | --- | --- | --- | --- | --- |
| CCCCCCCC/C=C\CCCCCCCC(=O)O [OA, oleic acid] | several round cells floating in the culture medium | no negative impact | no significant nuclear alterations | no significant nuclear alterations | no significant nuclear alterations | No signs of vascular irritation |  |  |  |  |  |  |  | viability at 24 h, 50 µM [1]: 89.8%; viability at 24 h, 100 µM [1]: 82.9%; viability at 24 h, 50 µM [2]: 87.9%; viability at 24 h, 100 µM [2]: 76.4%; doses inducing cytotoxicity in HUVEC endothelial cells [8]: above 200 µM |
| CCCCC/C=C\C/C=C\CCCCCCCC(=O)O[C@@H]1[C@@H](O)[C@@H](O)[C@H](OC[C@H]2O[C@@H](Oc3c(-c4ccc(O)c(O)c4)oc4cc(O)cc(O)c4c3=O)[C@H](O)[C@@H](O)[C@@H]2O)O[C@H]1C [RUT-L, rutin linoleate] |  | no negative impact | No significant changes | No significant changes | No significant changes | no significant irritant effects | 22.77 | over 100% | non-irritant | 290 | 300 | 295 | 0.49 | effect on cell viability ([9]; lowest concentrations (1 and 10 µM)): stimulatory effect; cell viability normalized to control [10]: 101.25%; effect on cell viability ([11]; 1-100 µM): stimulatory effect at all concentrations |
| CCCCCCCC/C=C\CCCCCCCC(=O)OC1C(C)OC(OCC2OC(Oc3c(-c4ccc(O)c(O)c4)oc4cc(O)cc(O)c4c3=O)C(O)C(O)C2O)C(O)C1O (stereo not shown) [RUT-O, rutin oleate] | several round cells floating in the culture medium | no negative impact | several apoptotic-like features | nuclear fragmentation and formation of apoptotic bodies | chromatin condensation | no significant irritant effects | 27.18 | over 100% | non-irritant | 286 | 300 | 291 | 0.70 | cell viability normalized to control ([9]; 50 µM): 79.03%; cell viability normalized to control ([9]; 100 µM): 77.53%; cell viability normalized to control ([10]; HepaRG, 24 h, MTT): 83.17%; cell viability normalized to control ([11]; 100 µM, MTT): 78.32% |
| CCCCCCCCCCCCOS(=O)(=O)[O-].[Na+] [SDS 1%, sodium dodecyl sulphate] |  |  |  |  |  | the most obvious signs of vascular irritation |  |  |  | 15 | 22 | 20 | 19.78 | tissue viability ([13]; EpiDerm inserts, positive control 5% solution): 10% |
